Experimental data as given in patent publication US4654348A, “Pyrazolo[4,3-d]pyrimidine derivative, process for its production, antihyperlipidemic agent containing it, its intermediate, and process for the production of the intermediate” (Nissan Chemical Industries Ltd., priority 1984, dated 1987).

Assays:
[1] = Test 2: Acute toxicity (mortality after seven days); type: in vivo; conditions: mouse, in vivo, po, 8000 mg/kg p.o., male ddY mice
Procedure: The test compounds suspended in 0.5% CMC-Na were administered p.o. to male ddY mice. The acute toxicity was determined based on the mortality after seven days. In respect of the compounds of Examples 1, 9, 10 and 11 of the present invention, the mortality was 0% even at a dose of as high as 8000 mg/kg by oral administration.

[2] = system: emulsion-induced hyperlipidemic rats; experiment: Test 1: antihyperlipidemic activity in emulsion-induced hyperlipidemic rats (serum Chol, HDL-Chol, liver weight); type: in vivo, male S.D. rats; conditions: 3 days, vs control; for change in vivo at 300 mg/kg / inhibition in vivo at 300 mg/kg: Rattus norvegicus, po, 72 h, 300 mg/kg/day via stomach tube; for change in vivo at 300 mg/kg: read-out: Increase rate of serum HDL-Chol; for inhibition in vivo at 300 mg/kg: read-out: Reduction rate of serum Chol.; for Degree of hepatomegaly (change rate of the liver weight): liver weight per 100 g body weight, 300 mg/kg/day
Procedure: The antihyperlipidemic activity in emulsion-induced hyperlipidemic rats:
Male S.D. rats weighing 80-90 g (4 weeks old) were used. They were divided into groups of 5 to 6 rats each. The test compounds suspended in 0.5% CMC-Na(carboxymethyl cellulose sodium salt) were given to the rats in a daily dose of 4 ml/kg (i.e. 300 mg/kg of the test compounds) via stomach tube every 10:00 a.m. After 30 min., lipids emulsion having the following composition was orally given to the rats in an amount of 2.5 ml per rat.
Cholic acid sodium salt 10.0 g
During the experimental period of 3 days, the rats were fed on a standard commercial diet and water ad libitum. […] The total cholesterol and HDL cholesterol were measured.
The weight of the liver was measured. To the control group, only the aqueous CMC-Na solution and the lipids emulsion were given.
The fractionation of lipoproteins was conducted by a dextran sulfate-MgCl2 precipitation method.
Cholesterol in serum was measured by means of a cholesterol measuring kit (Cholesterol C-Test Wako, manufactured by Wako Junyaku Co., Ltd.), and cholesterol in HDL was measured by means of NC Hi-Set, manufactured by Nippon Chemiphar Co., Ltd.
Further, the reduction rate of Chol was calculated by the following equation. [formula] where A is the amount of serum Chol (mg/dl) of the control group, and B is the amount of serum Chol (mg/dl) of the group to which the therapeutic agent was administered.
Likewise, the increase rate of HDL-Chol was calculated by the following equation. [formula] where C is the amount of serum HDL-Chol (mg/dl) of the control group, and D is the amount of serum HDL-Chol (mg/dl) of the group to which the therapeutic agent was administered.
The degree of hepatomegaly (i.e. the change rate of the liver weight) was calculated by the following equation. [formula] where E is the liver weight (g) per 100 g of the body weight of the control group, and F is the liver weight (g) per 100 g of the body weight of the group to which the therapeutic agent was administered.

[3] = in words; cited from earlier work

Compound | inhibition in vivo at 300 mg/kg [2] | other results
CCCCCCCCCCCCCCCCOc1c2ncnc(SCC(=O)OCC)c2nn1C [Example 1, 2-Methyl-3-n-hexadecyloxy-7-ethoxycarbonylmethylthio-pyrazolo[4,3-d]pyrimidine] | 58% | mortality at 168 h [1]: 0%; change in vivo at 300 mg/kg [2]: 42%; Degree of hepatomegaly (change rate of the liver weight) [2]: +8%
CCCCCCCC/C=C\CCCCCCCCOc1c2ncnc(SCC(=O)OCC)c2nn1C [Example 9, 2-Methyl-3-oleyloxy-7-ethoxycarbonylmethylthio-pyrazolo[4,3-d]pyrimidine] | 66% | mortality at 168 h [1]: 0%; change in vivo at 300 mg/kg [2]: 55%; Degree of hepatomegaly (change rate of the liver weight) [2]: +5%
CCCCC/C=C\C/C=C\CCCCCCCCOc1c2ncnc(SCC(=O)OCC)c2nn1C [Example 10, 2-Methyl-3-linoleyloxy-7-ethoxycarbonylmethylthio-pyrazolo[4,3-d]pyrimidine] | 76% | mortality at 168 h [1]: 0%; change in vivo at 300 mg/kg [2]: 13%; Degree of hepatomegaly (change rate of the liver weight) [2]: +12%
CCCCCCCCCCCCCCC(C)Oc1c2ncnc(SCC(=O)OCC)c2nn1C (centres unmarked) [Example 43, 2-Methyl-3-(1-methylpentadecyloxy)-7-ethoxycarbonylmethylthio-pyrazolo[4,3-d]pyrimidine] | 28% | –
CCCCCCCCC#CCCCCCCCCOc1c2ncnc(SCC(=O)OCC)c2nn1C [Example 44, 2-Methyl-3-(9-octadecynyloxy)-7-ethoxycarbonylmethylthio-pyrazolo[4,3-d]pyrimidine] | 39% | –
C=CCCCCCCCCOc1c2ncnc(SCC(=O)OCC)c2nn1C [Example 45, 2-methyl-3-(9-decenyloxy)-7-ethoxycarbonylmethylthio-pyrazolo[4,3-d]pyrimidine] | 22% | –
CCOC(=O)CSc1ncnc2c(OCCCC(C)=O)n(C)nc12 [Example 46, 2-Methyl-3-(4-oxo-pentyloxy)-7-ethoxycarbonymethylthio-pyrazolo[4,3-d]pyrimidine] | 11% | –
CCC=CCCOc1c2ncnc(SCC(=O)OCC)c2nn1-c1ccccc1 [Example 47, 2-Phenyl-3-(3-hexenyloxy)-7-ethoxycarbonylmethylthio-pyrazolo[4,3-d]pyrimidine] | 10% | –
CCOC(=O)CSc1ncnc2c(OCCOCc3ccc(C(C)(C)C)cc3)n(-c3ccccc3)nc12 [Example 48, 2-Phenyl-3-[2-(4-t-butylbenzyloxy)ethyloxy]-7-ethoxycarbonylmethylthio-pyrazolo[4,3-d]pyrimidine] | 34% | –
CCCCSCCOc1c2ncnc(SCC(=O)OCC)c2nn1-c1ccccc1 [Example 49, 2-Phenyl-3-(3-thia-heptyloxy)-7-ethoxycarbonylmethylthio-pyrazolo[4,3-d]pyrimidine] | 14% | –
CCCCCCCC/C=C\CCCCCCCCOc1c2ncnc(SCC(=O)OCC)c2nn1-c1ccccc1 [Example 50, 2-Phenyl-3-oleyloxy-7-ethoxycarbonylmethylthio-pyrazolo[4,3-d]pyrimidine] | 35% | –
C=CCCCCCCCCOc1c2ncnc(SCC(=O)OCC)c2nn1-c1ccccc1 [Example 51, 2-Phenyl-3-(9-decenyloxy)-7-ethoxycarbonylmethylthio-pyrazolo[4,3-d]pyrimidine] | 58% | –
CCCCCCCCCCCCCCCCOc1c2ncnc(SCC(=O)OCC)c2nn1-c1ccccc1 [Example 52, 2-Phenyl-3-n-hexadecyloxy-7-ethoxycarbonylmethylthio-pyrazolo[4,3-d]pyrimidine] | 30% | –
CCCC=CCCOc1c2ncnc(SCC(=O)OCC)c2nn1-c1ccccc1 [Example 53, 2-Phenyl-3-(3-heptenyloxy)-7-ethoxycarbonylmethylthio-pyrazolo[4,3-d]pyrimidine] | 11% | –
CCCCC/C=C\C/C=C\CCCCCCCCOc1c2ncnc(SCC(=O)OC)c2nn1C [Example 54, 2-Methyl-3-linoleyloxy-7-methoxycarbonylmethylthio-pyrazolo[4,3-d]pyrimidine] | 79% | –
CCCCC/C=C\C/C=C\CCCCCCCCOc1c2ncnc(SCCCCCC)c2nn1C [Example 55, 2-Methyl-3-linoleyloxy-7-n-hexylthio-pyrazolo[4,3-d]pyrimidine] | 58% | –

Compound | inhibition in vivo at 300 mg/kg [2] | other results
CCCCC/C=C\C/C=C\CCCCCCCCOc1c2ncnc(SCC(=O)OCCCC)c2nn1C [Example 56, 2-Methyl-3-linoleyloxy-7-n-butoxycarbonylmethylthio-pyrazolo[4,3-d]pyrimidine] | 60% | –
CCCCC/C=C\C/C=C\CCCCCCCCOc1c2ncnc(SCC#N)c2nn1C [Example 57, 2-Methyl-3-linoleyloxy-7-cyanomethylthio-pyrazolo[4,3-d]pyrimidine] | 61% | –
CCCCC/C=C\C/C=C\CCCCCCCCOc1c2ncnc(SC(C)C(=O)OCC)c2nn1C (centres unmarked) [Example 58, 2-Methyl-3-linoleyloxy-7-(1-ethoxycarbonylethylthio)-pyrazolo[4,3-d]pyrimidine] | 32% | –
CCCCC/C=C\C/C=C\CCCCCCCCOc1c2ncnc(SCCCC(=O)OCC)c2nn1C [Example 59, 2-Methyl-3-linoleyloxy-7-[3-(ethoxycarbonyl)propylthio]-pyrazolo[4,3-d]pyrimidine] | 68% | –
CCCCC/C=C\C/C=C\CCCCCCCCOc1c2ncnc(SCCCCC(=O)OCC)c2nn1C [Example 60, 2-Methyl-3-linoleyloxy-7-[4-(ethoxycarbonyl)butylthio]-pyrazolo[4,3-d]pyrimidine] | 22% | –
CCCCC/C=C\C/C=C\CCCCCCCCOc1c2ncnc(SCCCCCCCCCCC(=O)OCC)c2nn1C [Example 61] | 35% | –
CCCCC/C=C\C/C=C\CCCCCCCCOc1c2ncnc(SCc3ccccc3)c2nn1C [Example 62, 2-Methyl-linoleyloxy-7-benzylthio-pyrazolo[4,3-d]pyrimidine] | 17% | –
CCCCC/C=C\C/C=C\CCCCCCCCOc1c2ncnc(SC(C(=O)OCC)C(C)C)c2nn1C (centres unmarked) [Example 63, 2-Methyl-3-linoleyloxy-7-(1-ethoxycarbonyl-2-methylpropylthio)pyrazolo[4,3-d]pyrimidine] | 39% | –
C=CCSc1ncnc2c(OCCCCCCCC/C=C\C/C=C\CCCCC)n(C)nc12 [Example 64, 2-Methyl-3-linoleyloxy-7-allylthio-pyrazolo[4,3-d]pyrimidine] | 12% | –
CCCCCCCC/C=C\CCCCCCCCCCCCOc1c2ncnc(SCC(=O)OCC)c2nn1C [Example 69, 2-Methyl-3-erucyloxy-7-ethoxycarbonylmethylthio-pyrazolo[4,3-d]pyrimidine] | 59% | –
CCCCCCCC/C=C/CCCCCCCCOc1c2ncnc(SCC(=O)OCC)c2nn1C [Example 70, 2-Methyl-3-elaidyloxy-7-ethoxycarbonylmethylthio-pyrazolo[4,3-d]pyrimidine] | 63% | –
CCCCCCCCCCC/C=C\CCCCCOc1c2ncnc(SCC(=O)OCC)c2nn1C [Example 71, 2-Methyl-3-petroselinyloxy-7-ethoxycarbonylmethylthio-pyrazolo[4,3-d]pyrimidine] | 64% | –
CCCCCC/C=C/CCCCCCCCCCOc1c2ncnc(SCC(=O)OCC)c2nn1C [Example 72, 2-Methyl-3-vaccenyloxy-7-ethoxycarbonylmethylthio-pyrazolo[4,3-d]pyrimidine] | 58% | –
C=CCCCCCCCCCOc1c2ncnc(SCC(=O)OCC)c2nn1C [Example 73, 2-Methyl-3-(10-undecenyloxy)-7-ethoxycarbonylmethylthio-pyrazolo[4,3-d]pyrimidine] | 27% | –
CCCCCCC#CCCOc1c2ncnc(SCC(=O)OCC)c2nn1C [Example 74, 2-Methyl-3-(3-decynyloxy)-7-ethoxycarbonylmethylthio-pyrazolo[4,3-d]pyrimidine] | 16% | –
O=C(O)c1cccnc1 [nicotinic acid] | – | subsidiary ill effects reported [3]: flashing or gastroenteric troubles
